Data reported in patent publication US20240358668A1, “METHODS AND CO[…] AM[…] CARD[…] USING (R)-2-AMINO-3-PH[…]” (AXSOME THERAPEUTICS, INC., priority 2021, published 2024).

What was measured:
[1] = system: participants with narcolepsy or OSA; assay: 1-year OLE study: adverse events; format: in vivo, human
Procedure: A 1-year open-label extension (OLE) study was performed with 374 participants to examined whether clinically significant weight loss (≥5%) in this population had favorable effects on biomarkers of cardiovascular risk compared to no such weight loss. The study measured changes in weight and BP (parent study baseline to OLE week 40) and clinical laboratory assessments (OLE baseline to week 40) in participants with narcolepsy (n=124) or OSA (n=250) who received solriamfetol at doses of 75, 150, or 300 mg/d.
Of 374 participants, 96 (25.7%) had ≥5% weight loss; among those without ≥5% weight loss (n=278), 34 (9.1% of total population) had ≥5% weight gain. Demographics were similar in those with and without weight loss (see Table 1 (demographics and baseline characteristics) and Table 2 (additional demographics and baseline characteristics)). […] Participants with weight loss had mean±SD reductions in SBP (−2.6±11.4 mmHg) and DBP (−1.0±9.0 mmHg), whereas participants without weight loss had increases of +0.65±12.5 mmHg and +1.2±8.7 mmHg, respectively (see Table 3 (blood pressure at baseline and week 40), Table 4 (systolic blood pressure (SBP) maximum changes from baseline to week 40), and Table 5 (diastolic blood pressure (DBP) maximum changes from baseline to week 40)). Adverse events are shown in Table 11 (adverse events in ≥5% of Combined Solriamfetol Participants).

participants with OSA = assay: Study 14-003, 12-week randomized controlled trial: 24-hour ABPM at screening and week 8; format: in vivo, human; conditions: for effect on percentage of participants with a non-dipping BP profile: screening to week 8, any dose studied
Procedure: Solriamfetol is a dopamine and norepinephrine reuptake inhibitor indicated to improve wakefulness in adult patients with excessive daytime sleepiness associated with obstructive sleep apnea (OSA; 37.5-150 mg/d) or narcolepsy (75-150 mg/d). Previous studies reported small mean increases in blood pressure (BP); however, the time course of these effects has not been evaluated. […] These analyses evaluated the effects of solriamfetol treatment on BP using 24-hour ambulatory blood pressure monitoring (ABPM) and on the percentage of OSA patients with a non-dipping BP profile.
Twenty-four-hour ABPM was conducted at baseline and week 8 in a 12-week randomized controlled trial in participants with OSA (n=474). Blood pressure was collected every 30 minutes.

[2] = Weight loss <5% at Week 40, 75 mg/d
[3] = Weight loss <5% at Week 40, 150 mg/d
[4] = Weight loss <5% at Week 40, 300 mg/d
[5] = Weight loss <5% at Week 40, all doses
[6] = Weight loss ≥5% at Week 40, 75 mg/d
[7] = Weight loss ≥5% at Week 40, 150 mg/d
[8] = Weight loss ≥5% at Week 40, 300 mg/d
[9] = Weight loss ≥5% at Week 40, all doses
[10] = 37.5 mg, listed as solriamfetol

## NC(=O)OC[C@H](N)Cc1ccccc1 [Solriamfetol, (R)-2-amino-3-phenylpropyl carbamate]
[1]; [2]
  AE of interest: Decreased appetite: 1(4.8) n(%)
  Common AEs: Anxiety: 0 n(%)
  Common AEs: Dizziness: 2(9.5) n(%)
  Common AEs: Dry mouth: 2(9.5) n(%)
  Common AEs: Feeling jittery: 2(9.5) n(%)
  Common AEs: Headache: 3(14.3) n(%)
  Common AEs: Influenza: 0 n(%)
  Common AEs: Insomnia: 4(19.0) n(%)
  Common AEs: Nasopharyngitis: 3(14.3) n(%)
  Common AEs: Nausea: 0 n(%)
  Common AEs: Sinusitis: 1(4.8) n(%)
  Common AEs: URTI (Upper Respiratory Tract Infection): 0 n(%)
[1]; [3]
  AE of interest: Decreased appetite: 5(4.8) n(%)
  Common AEs: Anxiety: 10(9.5) n(%)
  Common AEs: Dizziness: 2(1.9) n(%)
  Common AEs: Dry mouth: 6(5.7) n(%)
  Common AEs: Feeling jittery: 7(6.7) n(%)
  Common AEs: Headache: 9(8.6) n(%)
  Common AEs: Influenza: 3(2.9) n(%)
  Common AEs: Insomnia: 14(13.3) n(%)
  Common AEs: Nasopharyngitis: 14(13.3) n(%)
  Common AEs: Nausea: 12(11.4) n(%)
  Common AEs: Sinusitis: 2(1.9) n(%)
  Common AEs: URTI (Upper Respiratory Tract Infection): 6(5.7) n(%)
[1]; [4]
  AE of interest: Decreased appetite: 6(3.9) n(%)
  Common AEs: Anxiety: 2(1.3) n(%)
  Common AEs: Dizziness: 4(2.6) n(%)
  Common AEs: Dry mouth: 5(3.3) n(%)
  Common AEs: Feeling jittery: 7(4.6) n(%)
  Common AEs: Headache: 15(9.9) n(%)
  Common AEs: Influenza: 2(1.3) n(%)
  Common AEs: Insomnia: 3 (2.0) n(%)
  Common AEs: Nasopharyngitis: 15(9.9) n(%)
  Common AEs: Nausea: 8 (5.3) n(%)
  Common AEs: Sinusitis: 11(7.2) n(%)
  Common AEs: URTI (Upper Respiratory Tract Infection): 14(9.2) n(%)
[1]; [5]
  AE of interest: Decreased appetite: 12(4.3) n(%)
  Common AEs: Anxiety: 12(4.3) n(%)
  Common AEs: Dizziness: 8(2.9) n(%)
  Common AEs: Dry mouth: 13(4.7) n(%)
  Common AEs: Feeling jittery: 16(5.8) n(%)
  Common AEs: Headache: 27(9.7) n(%)
  Common AEs: Influenza: 5(1.8) n(%)
  Common AEs: Insomnia: 21(7.6) n(%)
  Common AEs: Nasopharyngitis: 32(11.5) n(%)
  Common AEs: Nausea: 20(7.2) n(%)
  Common AEs: Sinusitis: 14(5.0) n(%)
  Common AEs: URTI (Upper Respiratory Tract Infection): 20(7.2) n(%)
[1]; [6]
  AE of interest: Decreased appetite: 0 n(%)
  Common AEs: Anxiety: 0 n(%)
  Common AEs: Dizziness: 0 n(%)
  Common AEs: Dry mouth: 1(100) n(%)
  Common AEs: Feeling jittery: 0 n(%)
  Common AEs: Headache: 0 n(%)
  Common AEs: Influenza: 0 n(%)
  Common AEs: Insomnia: 0 n(%)
  Common AEs: Nasopharyngitis: 0 n(%)
  Common AEs: Nausea: 0 n(%)
  Common AEs: Sinusitis: 0 n(%)
  Common AEs: URTI (Upper Respiratory Tract Infection): 0 n(%)
[1]; [7]
  AE of interest: Decreased appetite: 0 n(%)
  Common AEs: Anxiety: 3(13.6) n(%)
  Common AEs: Dizziness: 2(9.1) n(%)
  Common AEs: Dry mouth: 1(4.5) n(%)
  Common AEs: Feeling jittery: 2(9.1) n(%)
  Common AEs: Headache: 5(22.7) n(%)
  Common AEs: Influenza: 1(4.5) n(%)
  Common AEs: Insomnia: 2(9.1) n(%)
  Common AEs: Nasopharyngitis: 0 n(%)
  Common AEs: Nausea: 4(18.2) n(%)
  Common AEs: Sinusitis: 3(13.6) n(%)
  Common AEs: URTI (Upper Respiratory Tract Infection): 1(4.5) n(%)
[1]; [8]
  AE of interest: Decreased appetite: 2(2.7) n(%)
  Common AEs: Anxiety: 3(4.1) n(%)
  Common AEs: Dizziness: 3(4.1) n(%)
  Common AEs: Dry mouth: 7(9.6) n(%)
  Common AEs: Feeling jittery: 1(1.4) n(%)
  Common AEs: Headache: 7(9.6) n(%)
  Common AEs: Influenza: 5(6.8) n(%)
  Common AEs: Insomnia: 5(6.8) n(%)
  Common AEs: Nasopharyngitis: 8(11.0) n(%)
  Common AEs: Nausea: 3(4.1) n(%)
  Common AEs: Sinusitis: 3(4.1) n(%)
  Common AEs: URTI (Upper Respiratory Tract Infection): 3(4.1) n(%)
[1]; [9]
  AE of interest: Decreased appetite: 2(2.1) n(%)
  Common AEs: Anxiety: 6(6.3) n(%)
  Common AEs: Dizziness: 5(5.2) n(%)
  Common AEs: Dry mouth: 9(9.4) n(%)
  Common AEs: Feeling jittery: 3(3.1) n(%)
  Common AEs: Headache: 12(12.5) n(%)
  Common AEs: Influenza: 6(6.3) n(%)
  Common AEs: Insomnia: 7(7.3) n(%)
  Common AEs: Nasopharyngitis: 8(8.3) n(%)
  Common AEs: Nausea: 7(7.3) n(%)
  Common AEs: Sinusitis: 6(6.3) n(%)
  Common AEs: URTI (Upper Respiratory Tract Infection): 4(4.2) n(%)
Participants with OSA; 37.5 mg
  Mean Change in DBP on ABPM from Screening to Week 8, Mean (SD): 0.8 (6.09) mmHg
  Mean Change in HR on ABPM from Screening to Week 8, Mean (SD): 0.7 (5.57) bpm
  Mean Change in SBP on ABPM from Screening to Week 8, Mean (SD): 0.7 (10.19) mmHg
Participants with OSA; [10]
  Mean Change in DBP on ABPM from Screening to Week 8, Mean (SD): 0.8 mmHg
  Mean Change in SBP on ABPM from Screening to Week 8, Mean (SD): 0.7 mmHg
Participants with OSA; 75 mg
  Mean Change in DBP on ABPM from Screening to Week 8, Mean (SD): 0.7 (6.55) mmHg
  Mean Change in HR on ABPM from Screening to Week 8, Mean (SD): 0.4 (7.70) bpm
  Mean Change in SBP on ABPM from Screening to Week 8, Mean (SD): 2.2 (9.82) mmHg
Participants with OSA; 75 mg, listed as solriamfetol
  Mean Change in DBP on ABPM from Screening to Week 8, Mean (SD): 0.7 mmHg
  Mean Change in SBP on ABPM from Screening to Week 8, Mean (SD): 2.2 mmHg
Participants with OSA; 150 mg
  Mean Change in DBP on ABPM from Screening to Week 8, Mean (SD): −0.2 (5.10) mmHg
  Mean Change in HR on ABPM from Screening to Week 8, Mean (SD): 1.5 (6.53) bpm
  Mean Change in SBP on ABPM from Screening to Week 8, Mean (SD): −0.5 (8.64) mmHg
Participants with OSA; 150 mg, listed as solriamfetol
  Mean Change in DBP on ABPM from Screening to Week 8, Mean (SD): −0.2 mmHg
  Mean Change in SBP on ABPM from Screening to Week 8, Mean (SD): −0.5 mmHg
Participants with OSA; 300 mg
  Mean Change in DBP on ABPM from Screening to Week 8, Mean (SD): 2.5 (8.66) mmHg
  Mean Change in HR on ABPM from Screening to Week 8, Mean (SD): 1.9 (5.56) bpm
  Mean Change in SBP on ABPM from Screening to Week 8, Mean (SD): 2.9 (13.41) mmHg
Participants with OSA; 300 mg, listed as solriamfetol
  Mean Change in DBP on ABPM from Screening to Week 8, Mean (SD): 2.5 mmHg
  Mean Change in SBP on ABPM from Screening to Week 8, Mean (SD): 2.9 mmHg
Participants with OSA; combined solriamfetol, week 8 (baseline 55%)
  percentage of non-dippers (<10% decrease in MAP during sleep): 53%
Participants with OSA; highest approved dose of 150 mg/d
  time course of effects on BP (24-hour ABPM): transient across the day
Participants with OSA
  effect on percentage of participants with a non-dipping BP profile: not observed to have an increase
Participants with OSA; listed as solriamfetol
  effect on percentage of participants with a non-dipping BP profile: did not increase
